From PubChem BioAssay AID1259407 (Chemical Carcinogenesis Research Information System (CCRIS), 2018)
Active and inactive are the calls of the source. The rule behind the calls is not given here.

Tested on: CCRIS mutagenicity, Ames/micronucleus/aberration tests
Assay: CCRIS mutagenicity studies

For Cc1ccc(N)cc1C, the mutagenic call (Test System: AMES SALMONELLA TYPHIMURIUM, Strain/Indicator: TA97, Metabolic Activation: HAMSTER, LIVER, S-9, AROCLOR 1254 (10%), Method: PREINCUBATION) was “inactive; negative”, the mutagenic call (Test System: AMES SALMONELLA TYPHIMURIUM, Strain/Indicator: TA97, Metabolic Activation: NONE, Method: PREINCUBATION) was “inactive; negative” and the mutagenic call (Test System: AMES SALMONELLA TYPHIMURIUM, Strain/Indicator: TA97, Metabolic Activation: RAT, LIVER, S-9, AROCLOR 1254 (10%), Method: PREINCUBATION) was “inactive; negative”. The mutagenic call (Test System: AMES SALMONELLA TYPHIMURIUM, Strain/Indicator: TA98, Metabolic Activation: HAMSTER, LIVER, S-9, AROCLOR 1254 (10%), Method: PREINCUBATION) was “inactive; negative”, the mutagenic call (Test System: AMES SALMONELLA TYPHIMURIUM, Strain/Indicator: TA98, Metabolic Activation: NONE, Method: PREINCUBATION) was “inactive; negative” and the mutagenic call (Test System: AMES SALMONELLA TYPHIMURIUM, Strain/Indicator: TA98, Metabolic Activation: RAT LIVER S-9, PHENOBARBITAL AND BETA-NAPHTHOFLAVONE, Method: PREINCUBATION) was “inactive; negative”. The mutagenic call (Test System: AMES SALMONELLA TYPHIMURIUM, Strain/Indicator: TA98, Metabolic Activation: RAT, LIVER, S-9, AROCLOR 1254 (10%), Method: PREINCUBATION) was “inactive; negative”, the mutagenic call (Test System: AMES SALMONELLA TYPHIMURIUM, Strain/Indicator: TA100, Metabolic Activation: HAMSTER, LIVER, S-9, AROCLOR 1254 (10%), Method: PREINCUBATION) was “active; positive” and the mutagenic call (Test System: AMES SALMONELLA TYPHIMURIUM, Strain/Indicator: TA100, Metabolic Activation: NONE, Method: PREINCUBATION) was “inactive; negative”. The mutagenic call (Test System: AMES SALMONELLA TYPHIMURIUM, Strain/Indicator: TA100, Metabolic Activation: RAT LIVER S-9, PHENOBARBITAL AND BETA-NAPHTHOFLAVONE, Method: PREINCUBATION) was “inactive; negative”, the mutagenic call (Test System: AMES SALMONELLA TYPHIMURIUM, Strain/Indicator: TA100, Metabolic Activation: RAT, LIVER, S-9, AROCLOR 1254 (10%), Method: PREINCUBATION) was “inactive; negative” and the mutagenic call (Test System: AMES SALMONELLA TYPHIMURIUM, Strain/Indicator: TA1535, Metabolic Activation: HAMSTER, LIVER, S-9, AROCLOR 1254 (10%), Method: PREINCUBATION) was “inactive; negative”. The mutagenic call (Test System: AMES SALMONELLA TYPHIMURIUM, Strain/Indicator: TA1535, Metabolic Activation: NONE, Method: PREINCUBATION) was “inactive; negative”, the mutagenic call (Test System: AMES SALMONELLA TYPHIMURIUM, Strain/Indicator: TA1535, Metabolic Activation: RAT LIVER S-9, PHENOBARBITAL AND BETA-NAPHTHOFLAVONE, Method: PREINCUBATION) was “inactive; negative” and the mutagenic call (Test System: AMES SALMONELLA TYPHIMURIUM, Strain/Indicator: TA1535, Metabolic Activation: RAT, LIVER, S-9, AROCLOR 1254 (10%), Method: PREINCUBATION) was “inactive; negative”. For the same molecule, the mutagenic call (Test System: AMES SALMONELLA TYPHIMURIUM, Strain/Indicator: TA1537, Metabolic Activation: HAMSTER, LIVER, S-9, AROCLOR 1254 (10%), Method: PREINCUBATION) was “inactive; negative”, the mutagenic call (Test System: AMES SALMONELLA TYPHIMURIUM, Strain/Indicator: TA1537, Metabolic Activation: NONE, Method: PREINCUBATION) was “inactive; negative” and the mutagenic call (Test System: AMES SALMONELLA TYPHIMURIUM, Strain/Indicator: TA1537, Metabolic Activation: RAT LIVER S-9, PHENOBARBITAL AND BETA-NAPHTHOFLAVONE, Method: PREINCUBATION) was “inactive; negative”. The mutagenic call (Test System: AMES SALMONELLA TYPHIMURIUM, Strain/Indicator: TA1538, Metabolic Activation: NONE, Method: PREINCUBATION) was “inactive; negative”, the mutagenic call (Test System: AMES SALMONELLA TYPHIMURIUM, Strain/Indicator: TA1538, Metabolic Activation: RAT LIVER S-9, PHENOBARBITAL AND BETA-NAPHTHOFLAVONE, Method: PREINCUBATION) was “inactive; negative” and the mutagenic call (Test System: E.COLI, Strain/Indicator: WP2UVRA, Metabolic Activation: NONE, Method: PREINCUBATION) was “inactive; negative”. For the same molecule, the mutagenic call (Test System: E.COLI, Strain/Indicator: WP2UVRA, Metabolic Activation: RAT LIVER S-9, PHENOBARBITAL AND BETA-NAPHTHOFLAVONE, Method: PREINCUBATION) was “inactive; negative”.

With CCCC(O)C(CC)CO (stereo not drawn) the mutagenic call (Test System: AMES SALMONELLA TYPHIMURIUM, Strain/Indicator: TA98, Metabolic Activation: HAMSTER, LIVER, S-9, AROCLOR 1254, Method: STANDARD PLATE) was “inactive; negative”, the mutagenic call (Test System: AMES SALMONELLA TYPHIMURIUM, Strain/Indicator: TA98, Metabolic Activation: NONE, Method: STANDARD PLATE) was “inactive; negative” and the mutagenic call (Test System: AMES SALMONELLA TYPHIMURIUM, Strain/Indicator: TA98, Metabolic Activation: RAT, LIVER, S-9, AROCLOR 1254, Method: STANDARD PLATE) was “inactive; negative”. The mutagenic call (Test System: AMES SALMONELLA TYPHIMURIUM, Strain/Indicator: TA100, Metabolic Activation: HAMSTER, LIVER, S-9, AROCLOR 1254, Method: STANDARD PLATE) was “inactive; negative”, the mutagenic call (Test System: AMES SALMONELLA TYPHIMURIUM, Strain/Indicator: TA100, Metabolic Activation: NONE, Method: STANDARD PLATE) was “inactive; negative” and the mutagenic call (Test System: AMES SALMONELLA TYPHIMURIUM, Strain/Indicator: TA100, Metabolic Activation: RAT, LIVER, S-9, AROCLOR 1254, Method: STANDARD PLATE) was “inactive; negative”. The mutagenic call (Test System: AMES SALMONELLA TYPHIMURIUM, Strain/Indicator: TA1535, Metabolic Activation: HAMSTER, LIVER, S-9, AROCLOR 1254, Method: STANDARD PLATE) was “inactive; negative”, the mutagenic call (Test System: AMES SALMONELLA TYPHIMURIUM, Strain/Indicator: TA1535, Metabolic Activation: NONE, Method: STANDARD PLATE) was “inactive; negative” and the mutagenic call (Test System: AMES SALMONELLA TYPHIMURIUM, Strain/Indicator: TA1535, Metabolic Activation: RAT, LIVER, S-9, AROCLOR 1254, Method: STANDARD PLATE) was “inactive; negative”. The mutagenic call (Test System: AMES SALMONELLA TYPHIMURIUM, Strain/Indicator: TA1537, Metabolic Activation: HAMSTER, LIVER, S-9, AROCLOR 1254, Method: STANDARD PLATE) was “inactive; negative”, the mutagenic call (Test System: AMES SALMONELLA TYPHIMURIUM, Strain/Indicator: TA1537, Metabolic Activation: NONE, Method: STANDARD PLATE) was “inactive; negative” and the mutagenic call (Test System: AMES SALMONELLA TYPHIMURIUM, Strain/Indicator: TA1538, Metabolic Activation: HAMSTER, LIVER, S-9, AROCLOR 1254, Method: STANDARD PLATE) was “inactive; negative”. The mutagenic call (Test System: AMES SALMONELLA TYPHIMURIUM, Strain/Indicator: TA1538, Metabolic Activation: NONE, Method: STANDARD PLATE) was “inactive; negative”, the mutagenic call (Test System: AMES SALMONELLA TYPHIMURIUM, Strain/Indicator: TA1538, Metabolic Activation: RAT, LIVER, S-9, AROCLOR 1254, Method: STANDARD PLATE) was “inactive; negative” and the mutagenic call (Test System: MOUSE LYMPHOMA, Strain/Indicator: L5178Y (TK+/TK-), Metabolic Activation: NONE, Method: SUSPENSION/PLATE) was “inactive; positive. reevaluation of results: negative”. For the same molecule, the mutagenic call (Test System: MOUSE LYMPHOMA, Strain/Indicator: L5178Y (TK+/TK-), Metabolic Activation: RAT, LIVER, S-9, AROCLOR 1254, Method: SUSPENSION/PLATE) was “inactive; negative. reevaluation of results: negative”.
